Source: US10435400B2, “2,4-disubstituted phenylene-1,5-diamine derivatives and applications thereof, and pharmaceutical compositions and pharmaceutically acceptable compositions prepared therefrom” (SHANGHAI HAIYAN PHARMACEUTICAL TECHNOLOGY CO., LTD., priority 2014, dated 2019)
Like-named read-outs stand apart in the source and are kept apart here.

How the values were obtained:
[1] = In vivo pharmacokinetic test in rats; details: male, SD, rat, plasma; for clearance / half-life: IV 1 mg/kg; for clearance: read-out: Clearance CL; for half-life: read-out: Half-life T½ (converted); for bioavailability: oral gavage 20 mg/kg vs IV 1 mg/kg, read-out: Oral relative bioavailability F; for AUC / Cmax: route not given (IV 1 mg/kg, oral gavage 20 mg/kg); for AUC: read-out: Area under the curve AUC; for Cmax: read-out: Maximum plasma concentration Cmax
From the text: (§1) LC/MS/MS method was applied for the determination of the drug concentration in plasma at different times after the example compounds were orally and intravenously administered to rats or mice in order to study the pharmacokinetic behavior of the compounds of the invention in vivo in rats or mice and evaluate their pharmacokinetic characteristics.
(§2) Test Animals: healthy Adult male SD rats (weight 200-300 g, 6, fasted) or male CD1 mice (weight 20-30 g, 18, free access to water and food), provided by SLAC company;
(§3) Administration and Dosage: (1 mg/kg, 5 ml/kg, 5% DMAC (dimethylacetamide), 5% Solutol HS 15 (polyethylene glycol-15 hydroxystearate) and 90% saline was intravenously administered via foot dorsal vein and (20 mg/kg, 10 ml/kg, 0.5% CMC-Na solution) was administered via oral gavage to SD rats; (1 mg/kg, 5 ml/kg, 5% DMAC, 5% Solutol HS 15 and 90% Saline) was administered intravenously via tail vein and (5 mg/kg, 10 mL/kg, 0.5% CMC-Na aqueous solution) was administered via oral gavage to CD1 mice.
(§4) Blood collection: firstly, the animals which were selected to meet the test requirements prior to administration were weighed. The rats or mice were bound before the blood collection, blood from each administered rat was taken at predetermined time points (intravenous administration: blood was collected at 0.083, 0.25, 0.5, 1, 2, 4, 8, 24 h before and after administration respectively, 9 time points in total; gavage: blood was collected at 0.083, 0.25, 0.5, 1, 2, 4, 8, 24 h before and after administration respectively, 9 time points in total), about 150 μl of blood was collected via tail vein or heart (blood terminal). Blood from each administered mouse was taken blood at predetermined time points (tail vein: blood was collected at 0.083, 0.25, 0.5, 1, 2, 4, 8, 24 h, 8 time points in total; gavage: blood was collected at 0.25, 0.5, 1, 2, 4, 8, 24 h, 7 time points in total), about 150 μl of blood was collected via orbital or heart (blood terminal). Blood was transferred to a 1.5 ml tube to which K2EDTA was added previously. The collected blood sample was put on ice, and centrifuged to obtain plasma sample (2000 g, 5 min under 4° C.) within 15 minutes. All the plasma samples were stored at approximately −70° C. until analysis.
(§5) LC/MS/MS method was applied to determine the concentrations of the drug. At the same dose and administration, pharmacokinetic parameters of some example compounds of the invention in rats and mice were shown in Table 9: […]

NIH3T3 cells = assay: Cytotoxicity by MTT method, NIH3T3 cells; format: cell-based; details: read-out: NIH3T3 cells MTT assay (IC50/nM);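 further: cells grown in 96-well plates with compound for 72 h, then given MTT for a further 4 h at 37 °C under 5% CO2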
[2] = In vivo pharmacokinetic test in mice; details: male, CD1, mouse, plasma; for clearance / half-life: IV 1 mg/kg; for clearance: read-out: Clearance CL; for half-life: read-out: Half-life T½ (converted); for bioavailability: oral gavage 5 mg/kg vs IV 1 mg/kg, read-out: Oral relative bioavailability F; for AUC / Cmax: route not given (IV 1 mg/kg, oral gavage 5 mg/kg); for AUC: read-out: Area under the curve AUC; for Cmax: read-out: Maximum plasma concentration Cmax
From the text: as §1, §2, §3, §4, §5

A431 cells [3] = assay: ELISA cell activity, EGF-stimulated A431 cells; format: cell-based;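 further: Serum-starved A431 cells pretreated with compound for 1 h, then stimulated with EGF for 45 min, lysates read by ELISA (OD450 minus OD570), EGF-only wells as control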
H1975 cells [4] = assay: ELISA screening EGFR T790M inhibitor for cell activity, H1975 cells; format: cell-based; details: for IC50: read-out: H1975 cells (IC50/nM); for Selective inhibitory activities of target on cellular level [IC50 (A431 cells)/IC50 (H1975 cells)]: ratio of IC50 values
H1975 cells [5] = assay: Cytostatic activity by MTT method, H1975 cells; format: cell-based; details: for IC50: read-out: H1975 cells (IC50/nM); for selective inhibitory activity against the cell growth [IC50 (A431 cells)/IC50 (H1975 cells)]: ratio of IC50 values
A431 cells [6] = assay: Cytostatic activity by MTT method, A431 cells; details: read-out: A431 cells (IC50/nM);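 further: viability read by MTT reduction after compound exposure, with MTT incubated for a further 4 h at 37 °C under 5% CO2 in 96-well plates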
EGFR WT kinase = EGFR WT kinase (Homo sapiens (Human), UniProt P00533); assay: Wild type EGFR kinase inhibition test (z-lyte); format: biochemical; details: 10 μM ATP
Sequence of EGFR WT kinase (P00533 25-1210): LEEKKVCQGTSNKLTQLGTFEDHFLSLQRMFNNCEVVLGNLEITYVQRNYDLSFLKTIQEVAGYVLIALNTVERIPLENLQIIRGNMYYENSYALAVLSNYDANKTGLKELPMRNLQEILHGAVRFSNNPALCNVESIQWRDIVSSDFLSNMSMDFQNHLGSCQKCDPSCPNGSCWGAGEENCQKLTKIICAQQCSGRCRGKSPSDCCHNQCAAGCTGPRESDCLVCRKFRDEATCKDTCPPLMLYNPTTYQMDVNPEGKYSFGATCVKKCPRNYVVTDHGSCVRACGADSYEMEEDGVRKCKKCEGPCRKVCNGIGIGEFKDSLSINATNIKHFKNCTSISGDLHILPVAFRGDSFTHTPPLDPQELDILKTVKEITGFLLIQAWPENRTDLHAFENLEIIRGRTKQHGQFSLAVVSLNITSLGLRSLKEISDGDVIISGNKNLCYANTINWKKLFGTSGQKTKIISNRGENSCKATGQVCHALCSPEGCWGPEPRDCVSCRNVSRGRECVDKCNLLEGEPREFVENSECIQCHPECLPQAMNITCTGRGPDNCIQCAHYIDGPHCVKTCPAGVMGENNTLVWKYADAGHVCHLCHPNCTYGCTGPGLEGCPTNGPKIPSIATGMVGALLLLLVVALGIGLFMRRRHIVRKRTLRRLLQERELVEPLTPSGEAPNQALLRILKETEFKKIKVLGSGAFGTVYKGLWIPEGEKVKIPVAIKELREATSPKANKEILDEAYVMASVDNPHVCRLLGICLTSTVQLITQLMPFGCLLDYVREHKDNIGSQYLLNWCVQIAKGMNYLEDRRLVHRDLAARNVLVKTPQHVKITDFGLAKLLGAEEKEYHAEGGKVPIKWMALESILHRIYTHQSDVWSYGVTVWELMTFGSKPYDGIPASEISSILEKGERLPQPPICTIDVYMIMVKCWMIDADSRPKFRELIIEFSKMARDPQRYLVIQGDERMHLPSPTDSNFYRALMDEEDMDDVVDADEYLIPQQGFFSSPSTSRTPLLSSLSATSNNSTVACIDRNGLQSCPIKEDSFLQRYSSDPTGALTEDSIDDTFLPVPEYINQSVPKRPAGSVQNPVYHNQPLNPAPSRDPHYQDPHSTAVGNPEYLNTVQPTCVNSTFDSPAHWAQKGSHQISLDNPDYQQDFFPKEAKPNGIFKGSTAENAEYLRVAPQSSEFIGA

[7] = system: T790M mutant cell line H1975; details: background statement; almost no activity; cited from earlier work
[8] = Mus musculus, NIH3T3, cytotoxicity, MTT, 72 h
[9] = Homo sapiens, A-431, ELISA, compound 1 h then EGF 45 minutes, read-out: A431 cells (IC50/nM)
[10] = Homo sapiens, NCI-H1975, ELISA, compound 1 h
[11] = Homo sapiens, NCI-H1975, MTT, 72 h
[12] = ELISA, compound 1 h then EGF 45 minutes, read-out: A431 cells (IC50/nM)

| Compound | IC50 (A431 cells [3]; [9]) | IC50 (H1975 cells [4]; [10]) | IC50 (H1975 cells [5]; [11]) | IC50 (A431 cells [6]; Homo sapiens, A-431, 72 h) | IC50 (EGFR WT kinase) | Selective inhibitory activities of target on cellular level [IC50 (A431 cells)/IC50 (H1975 cells)] (H1975 cells [4]; ELISA) | selective inhibitory activity against the cell growth [IC50 (A431 cells)/IC50 (H1975 cells)] (H1975 cells [5]; MTT) | IC50 (A431 cells [3]; [12]) | IC50 (H1975 cells [4]; ELISA, compound 1 h) | IC50 (H1975 cells [5]; MTT, 72 h) | IC50 (A431 cells [6]; MTT, 72 h) | IC50 (NIH3T3 cells; [8]) | IC50 (NIH3T3 cells; cytotoxicity, MTT, 72 h) | further results |
| --- | --- | --- | --- | --- | --- | --- | --- | --- | --- | --- | --- | --- | --- | --- |
| C=CC(=O)Nc1cc(Nc2ncc(Cl)c(-c3cn(C)nc3C)n2)c(OC)cc1N1CCC(N(C)C)CC1 [Compound Z-95, N-(5-(5-chloro-4-(1,3-dimethyl-1H-pyrazol-4-yl)pyrimidin-2-ylamino)-2-(4-(dimethylamino)piperidin-1-yl)-4-methoxyphenyl)acrylamide] | 4960 nM | 41 nM | 45 nM | 5450 nM | 328 nM | 121 | 121.1 | – | – | – | – | > 10000 nM | – | – |
| C=CC(=O)Nc1cc(Nc2nccc(-c3cnc4c(ccn4C)c3)n2)c(OC)cc1N(C)CCN(C)C(C)C [Compound Z-115] | – | – | – | – | 22 nM | 5.2 | 66 | 469 nM | 90 nM | 38 nM | 2500 nM | – | > 10000 nM | – |
| C=CC(=O)Nc1cc(Nc2nccc(-c3cnc4c(ccn4C)c3)n2)c(OC)cc1OCCN(C)C [Compound Z-117] | – | – | – | – | 8 nM | 9.1 | 68.5 | 164 nM | 18 nM | 19 nM | 1300 nM | – | > 10000 nM | – |
| C=CC(=O)Nc1cc(Nc2ncc(Cl)c(-c3cnc4c(ccn4C(C)C)c3)n2)c(OC)cc1N(C)CCN(C)C [Compound Z-125] | – | – | – | – | 14 nM | 6.2 | 101.2 | 291 nM | 47 nM | 13 nM | 1320 nM | – | 4660 nM | – |
| C=CC(=O)Nc1cc(Nc2nccc(-c3cn(C)c4ccccc34)n2)c(OC)cc1N(C)CCN(C)C [comparative compound 1, reference compound] | – | – | – | […] | – | – | – | – | – | – | – | – | – | half-life [1]: 497 min; bioavailability [1]: 18.5%; IC50 (NIH3T3 cells; Mus musculus, NIH3T3, 72 h): 3550 nM; half-life [2]: 119 min; bioavailability [2]: 30.2%; IC50 (A431 cells [3]; Homo sapiens, A-431, read-out: A431 cells (IC50/nM)): […]; IC50 (H1975 cells [4]; Homo sapiens, NCI-H1975, 1 h): 29 nM; IC50 (H1975 cells [5]; Homo sapiens, NCI-H1975, 72 h): 13 nM |
| C#Cc1cccc(Nc2ncnc3cc(OCCOC)c(OCCOC)cc23)c1 [erlotinib] | – | – | – | – | – | – | – | – | – | – | – | – | – | activity in T790M mutant cell line H1975 [7]: greater than 3 uM |
| COc1cc2ncnc(Nc3ccc(F)c(Cl)c3)c2cc1OCCCN1CCOCC1 [gefitinib] | – | – | – | – | – | – | – | – | – | – | – | – | – | activity in T790M mutant cell line H1975 [7]: greater than 3 uM |

More lines, main results first:

| IC50 (A431 cells [3]; [9]) | IC50 (H1975 cells [4]; [10]) | IC50 (H1975 cells [5]; [11]) | IC50 (A431 cells [6]; Homo sapiens, A-431, 72 h) | IC50 (EGFR WT kinase) | Selective inhibitory activities of target on cellular level [IC50 (A431 cells)/IC50 (H1975 cells)] (H1975 cells [4]; ELISA) | selective inhibitory activity against the cell growth [IC50 (A431 cells)/IC50 (H1975 cells)] (H1975 cells [5]; MTT) | IC50 (A431 cells [3]; [12]) | IC50 (H1975 cells [4]; ELISA, compound 1 h) | IC50 (H1975 cells [5]; MTT, 72 h) | IC50 (A431 cells [6]; MTT, 72 h) | Compound | IC50 (NIH3T3 cells; [8]) | IC50 (NIH3T3 cells; cytotoxicity, MTT, 72 h) | further results |
| --- | --- | --- | --- | --- | --- | --- | --- | --- | --- | --- | --- | --- | --- | --- |
| 4790 nM | 15 nM | 19 nM | 1730 nM | – | – | – | – | – | – | – | C=CC(=O)Nc1cc(Nc2ncc(Cl)c(-c3cnn(C)c3)n2)c(OC)cc1N1CCC(N(C)C)CC1 [Compound Z-89, N-(5-(5-chloro-4-(1-methyl-1H-pyrazol-4-yl)pyrimidin-2-ylamino)-2-(4-(dimethylamino)piperidin-1-yl)-4-methoxyphenyl)acrylamide] | 4040 nM | – | clearance [1]: 43.5 mL/min/kg; half-life [1]: 423 min; bioavailability [1]: 102%; AUC [1]: 7190 ng·h/mL; Cmax [1]: 437 ng/mL; clearance [2]: 47.7 mL/min/kg; half-life [2]: 266 min; bioavailability [2]: 59.7%; AUC [2]: 1040 ng·h/mL; Cmax [2]: 85.3 ng/mL |
| 1690 nM | 34 nM | 17 nM | 2390 nM | 102 nM | 50 | 140.6 | – | – | – | – | C=CC(=O)Nc1cc(Nc2ncc(F)c(-c3cnn(C)c3)n2)c(OC)cc1N1CCC(N(C)C)CC1 [Compound Z-90, N-(2-(4-(dimethylamino)piperidin-1-yl)-5-(5-fluoro-4-(1-methyl-1H-pyrazol-4-yl)pyrimidin-2-ylamino)-4-methoxyphenyl)acrylamide] | > 10000 nM | – | clearance [1]: 43.9 mL/min/kg; half-life [1]: 421 min; bioavailability [1]: 92.6%; AUC [1]: 6480 ng·h/mL; Cmax [1]: 408 ng/mL; clearance [2]: 65.5 mL/min/kg; half-life [2]: 279 min; bioavailability [2]: 66.4%; AUC [2]: 657 ng·h/mL; Cmax [2]: 90.6 ng/mL |
| 663 nM | 57 nM | 40 nM | 1040 nM | 38 nM | 11.6 | 26 | – | – | – | – | C=CC(=O)Nc1cc(Nc2ncc(Cl)c(-c3ccn(C)c3)n2)c(OC)cc1N(C)CCN(C)C [Compound Z-99, N-(5-(5-chloro-4-(1-methyl-1H-pyrrol-3-yl)pyrimidin-2-ylamino)-2-((2-(dimethylamino)ethyl)(methyl)amino)-4-methoxyphenyl)acrylamide] | 5990 nM | – | – |
| 8430 nM | 24 nM | 24 nM | 1230 nM | 297 nM | 351.2 | 51.1 | – | – | – | – | C=CC(=O)Nc1cc(Nc2ncc(Cl)c(-c3cnn(C)c3)n2)c(OC)cc1N1CCN(C)CC1 [Compound Z-100, N-(5-(5-chloro-4-(1-methyl-1H-pyrazol-4-yl)pyrimidin-2-ylamino)-4-methoxy-2-(4-methylpiperazin-1-yl)phenyl)acrylamide] | 3880 nM | – | – |
| – | – | – | – | 7 nM | 11.5 | 49.5 | 229 nM | 20 nM | 10 nM | 495 nM | C=CC(=O)Nc1cc(Nc2ncc(Cl)c(-c3cnc4c(ccn4C4CC4)c3)n2)c(OC)cc1N(C)CCN(C)C [Compound Z-126] | – | 4910 nM | – |
